pIC50: −log10 of the molar value.
How the values were obtained:
human TLR9 = human TLR9 (Homo sapiens (Human), UniProt Q9NR96); test: TLR9 inhibition reporter assay (HEK-Blue SEAP); conditions: read-out: TLR9 IC50; HEK-Blue cells overexpressing human TLR9, SEAP reporter, ODN2006 5 nM;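 further: SEAP driven by an IFN-β minimal promoter with NF-κB and AP-1 sites, read after 22 h, compounds dosed 0.05 nM–50 µM, inhibition scaled between agonist plus DMSO and reference-inhibitor wells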
human TLR8 = human TLR8 (Homo sapiens (Human), UniProt Q9NR97); test: TLR8 inhibition reporter assay (HEK-Blue SEAP); conditions: read-out: TLR8 IC50; HEK-Blue cells overexpressing human TLR8, SEAP reporter, R848 15.9 μM;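 further: SEAP driven by IFN-β minimal promoter carrying NF-κB and AP-1 sites, compounds dosed 0.05 nM to 50 µM for 22 h, inhibition scaled between agonist-plus-DMSO and reference-inhibitor wells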
human TLR7 = human TLR7 (Homo sapiens (Human), UniProt Q9NYK1); test: TLR7 inhibition reporter assay (HEK-Blue SEAP); format: cell-based; conditions: HEK-Blue cells overexpressing human TLR7, SEAP reporter, gardiquimod 7.5 μM
human TLR7, sequence (Q9NYK1 27-1049): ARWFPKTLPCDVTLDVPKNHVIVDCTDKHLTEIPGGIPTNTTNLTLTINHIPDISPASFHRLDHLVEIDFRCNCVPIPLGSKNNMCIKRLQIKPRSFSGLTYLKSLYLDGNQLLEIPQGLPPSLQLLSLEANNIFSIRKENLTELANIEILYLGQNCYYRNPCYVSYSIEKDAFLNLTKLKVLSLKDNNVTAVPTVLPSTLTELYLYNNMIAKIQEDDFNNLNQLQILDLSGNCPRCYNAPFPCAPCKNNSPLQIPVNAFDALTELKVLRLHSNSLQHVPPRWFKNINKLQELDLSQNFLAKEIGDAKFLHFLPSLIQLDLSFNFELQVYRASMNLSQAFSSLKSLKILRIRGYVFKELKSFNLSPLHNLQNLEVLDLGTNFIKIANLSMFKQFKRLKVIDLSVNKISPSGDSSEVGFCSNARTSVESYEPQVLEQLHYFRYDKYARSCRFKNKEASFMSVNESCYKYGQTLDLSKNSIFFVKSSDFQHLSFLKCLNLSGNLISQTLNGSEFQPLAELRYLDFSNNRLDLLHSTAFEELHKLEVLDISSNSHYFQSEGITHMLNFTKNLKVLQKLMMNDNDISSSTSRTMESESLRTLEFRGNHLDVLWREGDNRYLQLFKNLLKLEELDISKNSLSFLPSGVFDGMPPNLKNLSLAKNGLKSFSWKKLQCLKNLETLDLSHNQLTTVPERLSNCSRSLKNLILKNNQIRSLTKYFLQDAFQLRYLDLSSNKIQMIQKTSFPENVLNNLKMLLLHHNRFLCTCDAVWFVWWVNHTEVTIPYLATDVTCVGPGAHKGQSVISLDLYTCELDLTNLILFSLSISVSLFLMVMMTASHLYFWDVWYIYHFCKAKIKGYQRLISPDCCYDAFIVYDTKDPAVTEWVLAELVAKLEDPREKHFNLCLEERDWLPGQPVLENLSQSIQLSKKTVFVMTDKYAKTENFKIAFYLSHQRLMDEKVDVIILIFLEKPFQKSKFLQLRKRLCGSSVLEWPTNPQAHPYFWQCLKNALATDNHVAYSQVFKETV

human TLR9, sequence (Q9NR96 26-1032): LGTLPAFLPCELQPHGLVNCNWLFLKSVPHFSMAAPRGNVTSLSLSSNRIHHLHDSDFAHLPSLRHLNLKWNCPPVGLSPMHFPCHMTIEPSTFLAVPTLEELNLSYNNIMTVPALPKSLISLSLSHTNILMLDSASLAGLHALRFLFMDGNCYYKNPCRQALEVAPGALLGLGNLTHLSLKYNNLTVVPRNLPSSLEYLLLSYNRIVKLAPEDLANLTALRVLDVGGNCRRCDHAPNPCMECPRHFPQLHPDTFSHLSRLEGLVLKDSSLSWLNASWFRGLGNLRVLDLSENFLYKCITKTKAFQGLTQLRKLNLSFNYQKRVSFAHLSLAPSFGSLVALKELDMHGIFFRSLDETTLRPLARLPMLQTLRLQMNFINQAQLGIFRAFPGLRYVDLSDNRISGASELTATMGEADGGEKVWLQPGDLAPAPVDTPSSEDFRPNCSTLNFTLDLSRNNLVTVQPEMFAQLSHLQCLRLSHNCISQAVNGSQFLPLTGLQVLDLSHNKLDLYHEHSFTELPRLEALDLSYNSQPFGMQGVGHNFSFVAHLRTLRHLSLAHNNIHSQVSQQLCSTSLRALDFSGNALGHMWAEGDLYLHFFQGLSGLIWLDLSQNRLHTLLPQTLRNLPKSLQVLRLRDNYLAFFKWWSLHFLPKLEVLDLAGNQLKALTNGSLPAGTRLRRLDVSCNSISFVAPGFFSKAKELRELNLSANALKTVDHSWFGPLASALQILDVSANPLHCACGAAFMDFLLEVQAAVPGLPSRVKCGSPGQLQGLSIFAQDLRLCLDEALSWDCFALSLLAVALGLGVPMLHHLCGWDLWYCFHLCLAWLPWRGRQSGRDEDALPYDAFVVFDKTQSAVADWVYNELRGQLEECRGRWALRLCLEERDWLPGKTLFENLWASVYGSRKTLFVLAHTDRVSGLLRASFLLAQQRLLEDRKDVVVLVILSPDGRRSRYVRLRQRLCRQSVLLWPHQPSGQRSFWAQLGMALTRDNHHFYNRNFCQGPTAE
human TLR8, sequence (Q9NR97 27-1041): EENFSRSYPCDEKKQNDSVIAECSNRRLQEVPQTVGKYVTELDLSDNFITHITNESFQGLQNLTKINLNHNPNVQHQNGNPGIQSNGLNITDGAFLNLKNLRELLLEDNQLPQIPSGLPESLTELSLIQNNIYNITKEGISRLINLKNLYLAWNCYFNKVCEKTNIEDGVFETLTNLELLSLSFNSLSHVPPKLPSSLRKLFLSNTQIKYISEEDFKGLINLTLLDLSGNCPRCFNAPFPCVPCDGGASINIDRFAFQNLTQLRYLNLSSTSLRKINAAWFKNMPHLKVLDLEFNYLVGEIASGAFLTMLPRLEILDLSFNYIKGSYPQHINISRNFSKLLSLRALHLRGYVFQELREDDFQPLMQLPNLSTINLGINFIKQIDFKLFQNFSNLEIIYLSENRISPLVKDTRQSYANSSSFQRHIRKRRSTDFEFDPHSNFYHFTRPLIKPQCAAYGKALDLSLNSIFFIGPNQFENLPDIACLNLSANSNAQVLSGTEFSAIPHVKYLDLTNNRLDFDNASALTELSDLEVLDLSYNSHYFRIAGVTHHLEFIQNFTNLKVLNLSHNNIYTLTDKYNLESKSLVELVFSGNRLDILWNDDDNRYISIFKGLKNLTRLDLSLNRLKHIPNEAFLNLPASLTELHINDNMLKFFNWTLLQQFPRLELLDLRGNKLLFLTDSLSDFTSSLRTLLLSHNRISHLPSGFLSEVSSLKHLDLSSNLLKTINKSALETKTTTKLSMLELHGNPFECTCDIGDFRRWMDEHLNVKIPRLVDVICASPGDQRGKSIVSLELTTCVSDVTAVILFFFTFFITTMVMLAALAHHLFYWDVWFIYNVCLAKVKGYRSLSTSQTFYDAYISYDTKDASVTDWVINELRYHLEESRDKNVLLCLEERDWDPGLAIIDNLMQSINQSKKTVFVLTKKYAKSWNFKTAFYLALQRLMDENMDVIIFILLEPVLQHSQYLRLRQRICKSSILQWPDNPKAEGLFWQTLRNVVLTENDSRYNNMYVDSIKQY

SMILES	pIC50 (human TLR9)	pIC50 (human TLR8)	pIC50 (human TLR7)
Cc1c(-c2[nH]c3ccc(C4CCC(NC(C)(C)C(=O)N(C)C)CC4)nc3c2C(C)C)cn2ncnc2c1C (stereo not drawn) [Example 495]	5.44	8.89	8.48
Cc1c(-c2[nH]c3ccc(C4CCC(NC(C)(C)C(=O)N5CCOCC5)CC4)nc3c2C(C)C)cn2ncnc2c1C (stereo not drawn) [Example 496]	5.58	8.68	8.12
COCCN(C1CCC(c2ccc3[nH]c(-c4cn5ncnc5c(C)c4C)c(C(C)C)c3n2)CC1)C1(CO)COC1 (stereo not drawn) [Example 499]	< 4.30	6.08	6.22
COCCN(C1CCC(c2ccc3[nH]c(-c4cn5ncnc5c(C)c4C)c(C(C)C)c3n2)CC1)C1(CO)COC1 (stereo not drawn) [Example 500]	< 4.30	7.41	7.72
Cc1c(-c2[nH]c3ccc(C4CCC(N(C)CC(N)=O)CC4)nc3c2C(C)C)cn2ncnc2c1C (stereo not drawn) [Example 501]	5.02	7.80	8.20
Cc1cc2[nH]c(-c3cn4ncnc4c(C)c3C)c(C(C)C)c2nc1C1CCC(NC2COC2)CC1 (stereo not drawn) [Example 502]	5.54	8.29	9.10
Cc1cc2[nH]c(-c3cn4ncnc4c(C)c3C)c(C(C)C)c2nc1C1CCC(NC2COC2)CC1 (stereo not drawn) [Example 503]	5.60	8.04	8.85
Cc1c(-c2[nH]c3cc(F)c(C4CCC(NC5CCOCC5)CC4)nc3c2C(C)C)cn2ncnc2c1C (stereo not drawn) [Example 504]	5.43	9.19	9.26
Cc1c(-c2[nH]c3cc(F)c(C4CCC(NC5CCOCC5)CC4)nc3c2C(C)C)cn2ncnc2c1C (stereo not drawn) [Example 505]	5.12	8.31	8.46
Cc1c(-c2[nH]c3cc(F)c(C4CCC(N)CC4)nc3c2C(C)C)cn2ncnc2c1C (stereo not drawn) [Example 506]	5.50	9.38	9.39
Cc1c(-c2[nH]c3cc(F)c(C4CCC(N)CC4)nc3c2C(C)C)cn2ncnc2c1C (stereo not drawn) [Example 507]	5.07	8.62	8.96
CCN(CC(=O)N(C)C)C1CCC(c2nc3c(C(C)C)c(-c4cn5ncnc5c(C)c4C)[nH]c3cc2F)CC1 (stereo not drawn) [Example 508]	5.16	8.48	8.96
CCN(CC(=O)N(C)C)C1CCC(c2nc3c(C(C)C)c(-c4cn5ncnc5c(C)c4C)[nH]c3cc2F)CC1 (stereo not drawn) [Example 509]	5.04	7.52	7.77
CCN(CCS(C)(=O)=O)C1CCC(c2nc3c(C(C)C)c(-c4cn5ncnc5c(C)c4C)[nH]c3cc2F)CC1 (stereo not drawn) [Example 510]	< 4.30	7.55	8.23
CCN(CCS(C)(=O)=O)C1CCC(c2nc3c(C(C)C)c(-c4cn5ncnc5c(C)c4C)[nH]c3cc2F)CC1 (stereo not drawn) [Example 511]	< 4.30	8.32	8.24
Cc1cc(-c2[nH]c3ccc(C4CCNCC4)nc3c2C(C)C)cc(C)n1 [Example 512]	6.52	8.25	8.96
CC(C)c1c(-c2ccc(=O)n(C)c2)[nH]c2ccc(C3CCNCC3)nc12 [Example 513]	6.26	6.51	6.50
Cc1cc(-c2[nH]c3ccc(C4CCNCC4)nc3c2C(C)C)nn(C)c1=O [Example 514]	5.15	7.36	7.42
Cc1cc(-c2[nH]c3ccc(C4CCNCC4)nc3c2C(C)C)cn(C)c1=O [Example 515]	6.65	7.68	8.10
Cc1cc(-c2[nH]c3ccc(C4CCNCC4)nc3c2C(C)C)cn2ncnc12 [Example 516]	6.81	8.72	9.66

SMILES	pIC50 (human TLR9)	pIC50 (human TLR8)	pIC50 (human TLR7)
Cc1cc(-c2[nH]c3ccc(C4CCNCC4)nc3c2C(C)C)cn2nnnc12 [Example 517]	6.82	8.22	8.96
Cc1cc(-c2[nH]c3ccc(C4CCNCC4)nc3c2C(C)C)cn2cnnc12 [Example 518]	6.14	7.49	8.80
Cc1c(-c2[nH]c3ccc(C4CCNCC4)nc3c2C(C)C)cn(C)c(=O)c1C [Example 519]	6.44	7.92	8.08
COc1cc(-c2[nH]c3ccc(C4CCNCC4)nc3c2C(C)C)cn2ncnc12 [Example 520]	6.55	8.15	9.10
Cc1c(-c2[nH]c3ccc(C4CCNCC4)nc3c2C(C)C)cn2ncnc2c1C [Example 521]	6.62	8.89	9.21
Cc1cc(-c2[nH]c3cc(C)c(C4CCNCC4)nc3c2C(C)C)cc(C)n1 [Example 522]	6.84	6.31	8.59
COc1cc(-c2[nH]c3cc(C)c(C4CCNCC4)nc3c2C(C)C)cn2ncnc12 [Example 523]	5.83	6.83	8.92
COc1cc(-c2[nH]c3cc(F)c(C4CCNCC4)nc3c2C(C)C)cn2ncnc12 [Example 524]	6.39	8.17	9.06
Cc1cc2[nH]c(-c3cc(C)c4ncnn4c3)c(C(C)C)c2nc1C1CCNCC1 [Example 525]	6.11	7.32	9.74
COc1ccc(-c2[nH]c3ccc(C4CCNCC4)nc3c2C(C)C)cc1OC [Example 526]	6.18	7.85	8.06
Cc1cc(-c2[nH]c3ccc(C4CCN(C5CCOCC5)CC4)nc3c2C(C)C)cn(C)c1=O [Example 527]	5.94	8.52	8.14
Cc1cc(-c2[nH]c3ccc(C4CCN(CC(=O)N(C)C)CC4)nc3c2C(C)C)cn(C)c1=O [Example 529]	5.74	7.92	8.54
CNC(=O)CN1CCC(c2ccc3[nH]c(-c4cc(C)c(=O)n(C)c4)c(C(C)C)c3n2)CC1 [Example 530]	5.32	8.06	8.15
Cc1cc(-c2[nH]c3ccc(C4CCN(C(=O)CN(C)C)CC4)nc3c2C(C)C)cn(C)c1=O [Example 531]	5.89	7.68	7.72
CNC(=O)CN1CCC(c2ccc3[nH]c(-c4cc(C)c5ncnn5c4)c(C(C)C)c3n2)CC1 [Example 532]	5.44	8.36	9.24
Cc1cc(-c2[nH]c3ccc(C4CCN(CC(=O)N(C)C)CC4)nc3c2C(C)C)cn2ncnc12 [Example 533]	5.84	8.48	9.30
Cc1cc(-c2[nH]c3ccc(C4CCN(C5COC5)CC4)nc3c2C(C)C)cn2ncnc12 [Example 534]	5.37	8.10	8.92
COc1cc(-c2[nH]c3ccc(C4CCN(C5COC5)CC4)nc3c2C(C)C)cn2ncnc12 [Example 535]	5.24	8.07	8.70
CNC(=O)CN1CCC(c2ccc3[nH]c(-c4cc(OC)c5ncnn5c4)c(C(C)C)c3n2)CC1 [Example 536]	5.58	8.39	9.18
COc1cc(-c2[nH]c3ccc(C4CCN(CC(=O)N(C)C)CC4)nc3c2C(C)C)cn2ncnc12 [Example 537]	5.54	8.15	8.68

Source: patent US10544143B2, “4-azaindole compounds” (BRISTOL-MYERS SQUIBB COMPANY, priority 2017, dated 2020)
